Results reported in PubChem BioAssay (NCI).
Where “and” joins values, the source holds several entries; their conditions need not be identical. Equal entries are not always repeated.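 How tested: cells in 96-well plates exposed to compound for 48 hours at five concentrations. GI50 is the concentration that inhibits growth by half. At the TGI there is no net growth.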

Legend:
Experiment in all cases: growth of human tumour cells (NCI), 48 h
786-0 renal = test system: 786-0 renal
A549 NSCLC = test system: A549 NSCLC
ACHN renal = test system: ACHN renal
BT-549 breast = test system: BT-549 breast
CAKI-1 renal = test system: CAKI-1 renal
CCRF-CEM leukemia = test system: CCRF-CEM leukemia
COLO 205 colon = test system: COLO 205 colon
DU-145 prostate = test system: DU-145 prostate
EKVX NSCLC = test system: EKVX NSCLC
HCC-2998 colon = test system: HCC-2998 colon
HCT-116 colon = test system: HCT-116 colon
HCT-15 colon = test system: HCT-15 colon
HL-60(TB) leukemia = test system: HL-60(TB) leukemia
HOP-62 NSCLC = test system: HOP-62 NSCLC
HOP-92 NSCLC = test system: HOP-92 NSCLC
HS 578T breast = test system: HS 578T breast
HT29 colon = test system: HT29 colon
IGROV1 ovarian = test system: IGROV1 ovarian
K-562 leukemia = test system: K-562 leukemia
KM12 colon = test system: KM12 colon
LOX IMVI melanoma = test system: LOX IMVI melanoma
M14 melanoma = test system: M14 melanoma
MALME-3M melanoma = test system: MALME-3M melanoma
MCF7 breast = test system: MCF7 breast
MDA-MB-231 breast = test system: MDA-MB-231 breast
MDA-MB-435 = test system: MDA-MB-435
MDA-N = test system: MDA-N
MOLT-4 leukemia = test system: MOLT-4 leukemia
NCI-H226 lung = test system: NCI-H226 lung
NCI-H23 lung = test system: NCI-H23 lung
NCI-H460 lung = test system: NCI-H460 lung
NCI-H522 lung = test system: NCI-H522 lung
NCI/ADR-RES ovarian = test system: NCI/ADR-RES ovarian
OVCAR-3 ovarian = test system: OVCAR-3 ovarian
OVCAR-4 ovarian = test system: OVCAR-4 ovarian
OVCAR-5 ovarian = test system: OVCAR-5 ovarian
OVCAR-8 ovarian = test system: OVCAR-8 ovarian
PC-3 prostate = test system: PC-3 prostate
RPMI-8226 leukemia = test system: RPMI-8226 leukemia
RXF 393 renal = test system: RXF 393 renal
SF-268 CNS = test system: SF-268 CNS
SF-295 CNS = test system: SF-295 CNS
SF-539 CNS = test system: SF-539 CNS
SK-MEL-2 melanoma = test system: SK-MEL-2 melanoma
SK-MEL-28 melanoma = test system: SK-MEL-28 melanoma
SK-MEL-5 melanoma = test system: SK-MEL-5 melanoma
SK-OV-3 ovarian = test system: SK-OV-3 ovarian
SN12C renal = test system: SN12C renal
SNB-19 CNS = test system: SNB-19 CNS
SNB-75 CNS = test system: SNB-75 CNS
SR leukemia = test system: SR leukemia
SW-620 colon = test system: SW-620 colon
T-47D breast = test system: T-47D breast
TK-10 renal = test system: TK-10 renal
U251 CNS = test system: U251 CNS
UACC-257 melanoma = test system: UACC-257 melanoma
UACC-62 melanoma = test system: UACC-62 melanoma
UO-31 renal = test system: UO-31 renal

CCOC(=O)C1(C(=O)OCC)[C@H](c2ccccc2)C2=NO[C@@H]3CCC[C@H]1[C@H]23
TGI (786-0 renal): > 100 µM | TGI (A549 NSCLC): > 100 µM | TGI (ACHN renal): > 100 µM | TGI (BT-549 breast): > 100 µM | TGI (CAKI-1 renal): > 100 µM | TGI (CCRF-CEM leukemia): > 100 µM | TGI (COLO 205 colon): > 100 µM | TGI (DU-145 prostate): > 100 µM | TGI (EKVX NSCLC): > 100 µM | TGI (HCC-2998 colon): 60 µM | TGI (HCT-116 colon): > 100 µM | TGI (HCT-15 colon): > 100 µM | TGI (HL-60(TB) leukemia): > 100 µM | TGI (HOP-62 NSCLC): > 100 µM | TGI (HOP-92 NSCLC): > 100 µM | TGI (HS 578T breast): > 100 µM | TGI (HT29 colon): > 100 µM | TGI (IGROV1 ovarian): > 100 µM | TGI (K-562 leukemia): > 100 µM | TGI (KM12 colon): > 100 µM | TGI (LOX IMVI melanoma): > 100 µM | TGI (M14 melanoma): > 100 µM | TGI (MALME-3M melanoma): > 100 µM | TGI (MCF7 breast): > 100 µM | TGI (MDA-MB-231 breast): > 100 µM | TGI (MDA-MB-435): 51.5 µM | TGI (MDA-N): > 100 µM | TGI (MOLT-4 leukemia): > 100 µM | TGI (NCI-H226 lung): > 100 µM | TGI (NCI-H23 lung): > 100 µM | TGI (NCI-H460 lung): > 100 µM | TGI (NCI-H522 lung): > 100 µM | TGI (NCI/ADR-RES ovarian): > 100 µM | TGI (OVCAR-3 ovarian): 96.8 µM | TGI (OVCAR-4 ovarian): > 100 µM | TGI (OVCAR-5 ovarian): > 100 µM | TGI (OVCAR-8 ovarian): > 100 µM | TGI (PC-3 prostate): > 100 µM | TGI (RPMI-8226 leukemia): > 100 µM | TGI (RXF 393 renal): > 100 µM | TGI (SF-268 CNS): > 100 µM | TGI (SF-295 CNS): > 100 µM | TGI (SF-539 CNS): > 100 µM | TGI (SK-MEL-2 melanoma): > 100 µM | TGI (SK-MEL-28 melanoma): > 100 µM | TGI (SK-MEL-5 melanoma): > 100 µM | TGI (SK-OV-3 ovarian): > 100 µM | TGI (SN12C renal): > 100 µM | TGI (SNB-19 CNS): > 100 µM | TGI (SNB-75 CNS): > 100 µM | TGI (SR leukemia): > 100 µM | TGI (SW-620 colon): > 100 µM | TGI (T-47D breast): > 100 µM | TGI (TK-10 renal): > 100 µM | TGI (U251 CNS): > 100 µM | TGI (UACC-257 melanoma): > 100 µM | TGI (UACC-62 melanoma): > 100 µM | TGI (UO-31 renal): > 100 µM

CC(CN(C)C)Nc1c2ccccc2nc2cccc([N+](=O)[O-])c12 (stereo not given)
GI50 (BT-549 breast): 0.54 µM | TGI (BT-549 breast): 1.9 µM | TGI (CCRF-CEM leukemia): 2.87 µM | GI50 (DU-145 prostate): 0.0747 µM and < 0.0219 µM | TGI (DU-145 prostate): 11.9 µM | GI50 (HCT-116 colon): 0.026 µM and < 0.01 µM | GI50 (HL-60(TB) leukemia): 0.0182 µM | GI50 (HOP-62 NSCLC): 0.12 µM and < 0.013 µM | GI50 (HOP-92 NSCLC): 0.226 µM and 0.0258 µM | GI50 (HS 578T breast): < 0.01 µM | TGI (HS 578T breast): < 0.01 µM | TGI (HT29 colon): 1.02 µM and 0.413 µM | TGI (IGROV1 ovarian): 10.1 µM | TGI (K-562 leukemia): 0.764 µM | TGI (MCF7 breast): 0.636 µM | TGI (MDA-MB-231 breast): 2.64 µM | TGI (MDA-N): 0.748 µM | GI50 (NCI-H460 lung): 0.0248 µM and < 0.0111 µM | TGI (NCI-H460 lung): 0.206 µM and 0.711 µM | TGI (NCI-H522 lung): 0.111 µM | TGI (OVCAR-4 ovarian): 0.61 µM and 5.21 µM | TGI (RXF 393 renal): 14.9 µM | GI50 (SF-295 CNS): 0.0968 µM and < 0.01 µM | GI50 (SF-539 CNS): 0.337 µM and < 0.0378 µM | TGI (SF-539 CNS): 1.31 µM | GI50 (SK-MEL-5 melanoma): 0.0715 µM and < 0.01 µM | GI50 (SNB-75 CNS): 0.342 µM and 0.0431 µM | TGI (SNB-75 CNS): 1.59 µM and 0.268 µM | GI50 (SW-620 colon): 0.306 µM | TGI (SW-620 colon): 11.8 µM | GI50 (UO-31 renal): 0.188 µM and < 0.0237 µM | TGI (UO-31 renal): 0.457 µM and 0.887 µM
